From patent US9144251B2, “High-potency sweetener composition with mineral and compositions sweetened therewith” (The Coca-Cola Company, priority 2005, dated 2015)

Assay: Sensory evaluation of sweetness linger and sugar-like taste by a panel of experts (Example Sets G and H)
Assay type: in vivo
Design: key: 0=no sweetness linger; 1 very slight sweetness linger; 2=slight sweetness linger; 3 moderate sweetness linger; 4=moderately high sweetness linger; 5=high sweetness linger
Conditions: scale 0-5; for Sweetness Linger rating (defined anchors of the scale): sucrose, 500 ppm of REBA control sample
Procedure: Sensory evaluation of the samples prepared in Example Set G was carried out under the following protocol, similar to that described hereinabove. In this test protocol, none of the samples were swallowed. All samples were expectorated and the mouth was rinsed with water after the tasting. Immediately upon sensing maximal sweetness, the sample was expectorated, the mouth was rinsed with water and the rate of sweetness decay (“Sweetness Linger”) was measured, where attention was focused on the sweetness 3-4 min after the water rinse. After sample tasting was complete, a salty oyster cracker was chewed followed by a water rinse, and at least 5 minutes followed before tasting the next sample. The sweetness linger was rated by a panel of experts in the sensory evaluation of foods and beverages using the following scale: 0=no sweetness linger, 1 very slight sweetness linger, 2=slight sweetness linger, 3 moderate sweetness linger, 4=moderately high sweetness linger, 5=high sweetness linger.
The “Sweetness Linger” rating for sucrose observed by this protocol is defined as 0. The Sweetness Linger of a 500 ppm of REBA control sample is defined as 5. Experimental samples were tasted by the same protocol, always allowing sufficient time between samples to ensure re-equilibration of the sensory system. Re-tasting of control samples during the course of the experiment was allowed and encouraged.
The comparison taste test was performed between two controls and addition of sweet taste improving additive on the onset and/or sweetness linger.
Sweet taste improving compositions were combined with a REBA solution to determine their effect on sweetness linger. Screening of the initial sample, or further dilutions, allowed identification of concentrations which were just above-threshold, herein defined as “near-threshold concentrations.” The near-threshold additive concentrations, a 6- to 100-fold higher higher additive concentration (depending on the off-taste intensity), and a mid-level additive concentration (halfway between the near-threshold and higher additive concentration) were evaluated to determine the effect on sweetness linger of a REBA solution.
Formulations of a 500 ppm REBA in a phosphoric acid solution (75%) at a pH of 2.5 with phosphoric acid or a pH of 3.1 with citric acid and potassium citrate were prepared prior to the addition of the additives at the three levels of concentration.
Sensory evaluation using the protocol described in Example Set G then was used to evaluate the sweetness linger of the REBA solutions.

Row | Molecule | sweetness linger rating, control sample (8 g of sugar in 100 ml of citrate buffer) | sweetness linger rating, control sample (10 g of sugar in 100 ml carbon treated water, phosphoric acid (75%) to pH 2.4-2.5) | Sweetness Linger rating (defined anchors of the scale) | sweetness linger rating, control sample (400 ppm REBA in citric acid/potassium citrate composition equivalent to diet lemon-lime beverage, no additive) | sweetness linger rating, control sample (500 ppm in carbon-treated water, phosphoric acid (75%) to pH 2.4-2.5, no additive)
1 | OC[C@H]1O[C@@](CO)(O[C@H]2O[C@H](CO)[C@@H](O)[C@H](O)[C@H]2O)[C@@H](O)[C@@H]1O [sugar, sucrose] | 0 | 0 | 0 |  | 
2 | rebaudioside A |  |  | 5 | 5 | 5
